The source of these data is patent US20240376099A1, “COMPOUNDS AND COMPOSITIONS AS INHIBITORS OF ENDOSOMAL TOLL-LIKE RECEPTORS” (Novartis AG, priority 2016, published 2024).

This experiment deals with T1, TLR9 (Homo sapiens, UniProt Q9NR96).
T1 construct: Fresh blood was collected from normal human donors; endogenous in cells; host or cells: human PBMCs from fresh donor blood
T1 sequence (Q9NR96 26-1032): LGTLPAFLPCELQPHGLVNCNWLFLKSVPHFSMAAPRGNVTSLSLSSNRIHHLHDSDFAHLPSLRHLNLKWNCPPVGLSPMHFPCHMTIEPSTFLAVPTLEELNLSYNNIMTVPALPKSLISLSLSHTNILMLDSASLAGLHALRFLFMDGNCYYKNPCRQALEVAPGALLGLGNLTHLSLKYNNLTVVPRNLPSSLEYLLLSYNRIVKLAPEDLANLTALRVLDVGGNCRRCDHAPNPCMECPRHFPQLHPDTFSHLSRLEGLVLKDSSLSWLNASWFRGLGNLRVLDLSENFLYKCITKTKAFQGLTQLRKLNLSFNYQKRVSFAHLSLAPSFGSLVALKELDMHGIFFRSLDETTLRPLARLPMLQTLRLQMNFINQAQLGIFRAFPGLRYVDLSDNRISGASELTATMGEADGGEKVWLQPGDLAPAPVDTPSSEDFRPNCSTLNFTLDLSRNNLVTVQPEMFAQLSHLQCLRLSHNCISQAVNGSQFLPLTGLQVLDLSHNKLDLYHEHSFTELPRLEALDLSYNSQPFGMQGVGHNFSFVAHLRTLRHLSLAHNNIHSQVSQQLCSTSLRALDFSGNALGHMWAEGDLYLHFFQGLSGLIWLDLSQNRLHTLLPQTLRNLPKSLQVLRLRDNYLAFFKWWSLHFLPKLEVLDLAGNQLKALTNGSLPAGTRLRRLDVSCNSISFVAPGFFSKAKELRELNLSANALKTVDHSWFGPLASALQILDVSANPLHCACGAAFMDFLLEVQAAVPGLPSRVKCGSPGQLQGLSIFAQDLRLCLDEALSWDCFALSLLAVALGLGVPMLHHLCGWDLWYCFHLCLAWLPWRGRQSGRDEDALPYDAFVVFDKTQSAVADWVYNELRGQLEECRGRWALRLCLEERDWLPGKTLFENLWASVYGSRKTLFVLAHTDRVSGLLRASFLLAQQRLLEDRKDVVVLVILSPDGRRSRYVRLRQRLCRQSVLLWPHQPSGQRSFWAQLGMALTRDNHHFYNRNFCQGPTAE
Kind of experiment: huPBMC TLR9 Antagonist IFNα Assay. In kind it is cell-based. To be noted: human PBMCs stimulated with ODN2216 0.3 μM, 14-16 hrs; IFNα2b AlphaLISA read-out. In short, it runs like this: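 Human PBMCs from fresh donor blood (150,000 cells/well) stimulated 14–16 h at 37 °C with DOTAP-complexed ssRNA40 (final 1 μg/ml for TLR8, 10 μg/mL for TLR7) or ODN2216 (final 0.3 μM, TLR9), 0.25% DMSO, ten-point 1/3 compound dilutions. Supernatant IL-6 read by HTRF (TLR8); IFNα by IFNα2b AlphaLISA (TLR7/TLR9).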
On to `Cc1cc(N2CCc3c(c(C)nn3CC34CCC(N5CC[C@H](O)C5)(CC3)CC4)C2)c2cnn(C)c2n1` [compound 75, (S)-1-(4-((5-(1,6-dimethyl-1H-pyrazolo[3,4-b]pyridin-4-yl)-3-methyl-4,5,6,7-tetrahydro-1H-pyrazolo[4,3-c]pyridin-1-yl)methyl)bicyclo[2.2.2]octan-1-yl)pyrrolidin-3-ol], for which the IC50 (usually the concentration that gives 50% inhibition) came to 963 nM.

On to `Cc1cc(N2CCc3c(c(C)nn3CC34CCC(N(C)C5CCC5)(CC3)CC4)C2)c2cnn(C)c2n1` [compound 79, N-cyclobutyl-4-((5-(1,6-dimethyl-1H-pyrazolo[3,4-b]pyridin-4-yl)-3-methyl-4,5,6,7-tetrahydro-1H-pyrazolo[4,3-c]pyridin-1-yl)methyl)-N-methylbicyclo[2.2.2]octan-1-amine], for which the IC50 worked out at 64 nM.

Regarding `Cc1cc(N2CCc3c(c(C)nn3CC34CCC(N5C[C@H](O)[C@@H](O)C5)(CC3)CC4)C2)c2cnn(C)c2n1` [compound 80, (3S,4S)-1-(4-((5-(1,6-dimethyl-1H-pyrazolo[3,4-b]pyridin-4-yl)-3-methyl-4,5,6,7-tetrahydro-1H-pyrazolo[4,3-c]pyridin-1-yl)methyl)bicyclo[2.2.2]octan-1-yl)pyrrolidine-3,4-diol], the IC50 stood at 249 nM.

For the compound `Cc1nn(CC23CCC(N4CCCC4)(CC2)CC3)c2c1CN(c1ccnc(-c3ccccc3)c1)CC2` [compound 85, 3-methyl-5-(2-phenylpyridin-4-yl)-1-((4-(pyrrolidin-1-yl)bicyclo[2.2.2]octan-1-yl)methyl)-4,5,6,7-tetrahydro-1H-pyrazolo[4,3-c]pyridine], the IC50 came to 569 nM.

`Cc1cc(N2CCc3c(c(C)nn3CC34CCC(N5CCCC5)(CC3)CC4)C2)c2ccncc2n1` [compound 86, 2-methyl-4-(3-methyl-1-((4-(pyrrolidin-1-yl)bicyclo[2.2.2]octan-1-yl)methyl)-6,7-dihydro-1H-pyrazolo[4,3-c]pyridin-5(4H)-yl)-1,7-naphthyridine]: the IC50 was 2740 nM.

On to `Cc1cc(N2CCc3c(c(C)nn3CCC34CCC(N)(CC3)CC4)C2)c2cnn(C)c2n1` [compound 91, 4-(2-(5-(1,6-dimethyl-1H-pyrazolo[3,4-b]pyridin-4-yl)-3-methyl-4,5,6,7-tetrahydro-1H-pyrazolo[4,3-c]pyridin-1-yl)ethyl)bicyclo[2.2.2]octan-1-amine], for which the concentration for half-maximal inhibition (IC50) is 215 nM.

With `Cc1cc(N2CCc3c(c(C)nn3CC34CCC(N)(CC3)CC4)C2)c2ccnc(C)c2n1` [compound 92, 4-((5-(2,8-dimethyl-1,7-naphthyridin-4-yl)-3-methyl-4,5,6,7-tetrahydro-1H-pyrazolo[4,3-c]pyridin-1-yl)methyl)bicyclo[2.2.2]octan-1-amine], the IC50 amounted to 94 nM.
